Data published in patent publication US20140243411A1 (priority 2011, published 2014).
Marks after values point to notes of the source that are not given here.

Tested on: rats contaminated with ^241Am
Experiment: Radionuclide decorporation efficacy study in rats contaminated with 241Am (Example 10): excretion, tissue content, liver and skeleton burden
Assay type: in vivo, SD rats
Method: All animal studies were conducted according to a protocol approved by the University of North Carolina at Chapel Hill Institutional Animal Care and Use Committee (IACUC). Ten-week-old adult female SD rats weighing from 200 to 300 g were used in these studies (Charles River Labs, Raleigh, N.C.). Food and water were given ad libitum. The animal room was kept at a controlled temperature (23° C.) and light cycle (light exposure from 8 AM to 8 PM). For the duration of the study, the rats were housed in metabolic cages individually with daily urine and feces collection until euthanasia on Day 7.
To evaluate the efficacy of transdermal delivery of the C2E5 nonaqueous gel, a radionuclide decorporation efficacy study was conducted in rats contaminated with ^241Am. Adult female SD rats were anesthetized with 2-3% isoflurane. Dorsal skin between the cervical vertebrae and anterior thoracic vertebrae was clipped with caution before all animals were contaminated with [^241Am]-Americium nitrate solution (250 nCi, 0.1 mL) via an i.m. injection in anterior thigh muscle. The C2E5 nonaqueous gel was applied at dose of 1000 mg/kg using a cotton swap to a 6 cm^2 (2 cm×3 cm) area of the clipped dorsal region immediately after contamination. A jacket with plastic dorsal insert (VWR International) was placed on the rat to protect the gel application region. The mass of C2E5 gel applied was recorded for each animal to permit the actual dose determination. The animals were housed in metabolic cages individually after C2E5 treatment and were euthanized 7 days after contamination. Positive and negative controls included animals administered Ca-DTPA intravenously and animals without any treatment. The animals were observed once daily and their body weights recorded at pre-dose and prior to necropsy, Urine and feces were collected daily until euthanasia, when the liver, kidneys, both femurs and the muscle tissue from around the injection site were also collected. Cage washes were collected at the end of each experiment. As ˜35% of the decay of ^241Am is associated with photon emissions of 59.7 keV, ^241Am present in samples was quantified using a gamma counter (2470 Wizard 2, Perkin Elmer). The samples were counted for one minute using a 40-80 keV energy detection window and were background-corrected. Additionally, ^241Am activity was quantified in 2×0.1 mL aliquots of the dosing solution. For all samples, ^241Am content was expressed as a percentage of the initial dose.
where % ID represents the percent of injected dose. Where data for both femurs were available, an estimate of the total skeletal burden was made using the method of Volf with modification in which the counts in the contra-lateral femur were multiplied by 19 and added to the counts in the ipsi-lateral femur. The modification for the literature method was due to higher ^241Am content in ipsi-lateral femur as a result of i.m. injection in anterior thigh muscle.
Statistically significant differences among groups were determined using one-way ANOVA with Tukey's post hoc comparison. All measurements are expressed as mean±standard deviation (S.D.). The level of significance was set at p<0.05.

[1] = rats, seven days following a single dose, Ca-DTPA 14 mg/kg i.v., C2E5 1000 mg/kg transdermal
[2] = seven days after single dose, Ca-DTPA 14 mg/kg i.v., C2E5 1000 mg/kg transdermal gel

`O=C([O-])CN(CCN(CC(=O)[O-])CC(=O)[O-])CCN(CC(=O)[O-])CC(=O)[O-].[Ca+2].[Na+].[Na+].[Na+]` [Ca-DTPA, reference compound] was tested, and the “time of peak ^241Am excretion” value (14 mg/kg i.v.) was ≤ 24 h, the “Skeleton Burden (% of ID)” value (contra-lateral femur × 19 + ipsi-lateral femur, rats, seven days following a single dose, Ca-DTPA 14 mg/kg i.v. (n = 3), C2E5 1000 mg/kg transdermal) was 11.6 ± 2.2^b % of ID and the “Ipsi-lateral femur content of 241Am” value (rats, seven days following a single dose, Ca-DTPA 14 mg/kg i.v. (one animal excluded), C2E5 1000 mg/kg transdermal) was 0.88 ± 0.18^c % of ID of ^241Am. The “% of Reduction over control (liver burden)” value [1] was 38.2%, the “% of Reduction over control (skeleton burden)” value [1] was 29.3% and the “Contra-lateral femur content of 241Am” value [1] was 0.57 ± 0.09 % of ID of ^241Am. The “Kidney content of 241Am” value [1] was 0.55 ± 0.03 % of ID of ^241Am, the “Liver Burden (% of ID)” value [1] was 10.2 ± 2.7 % of ID and the “Liver content of 241Am” value [1] was 10.2 ± 2.7 % of ID of ^241Am. The “Muscle-contra content of 241Am” value [1] was 0.0054 ± 0.0028 % of ID of ^241Am per gram of muscle-contra, the “Muscle-ipsi content of 241Am” value [1] was 40.0 ± 8.5 % of ID of ^241Am and the “Pelt at injection site content of 241Am” value [1] was 0.43 ± 0.24 % of ID of ^241Am. For the same compound, the “Total decorporation (% of ID of 241Am)” value [1] was 24.5 ± 3.5 % of ID of ^241Am, the “reduction of liver burden of ^241Am versus control group” value (seven days after single dose, Ca-DTPA 14 mg/kg i.v., C2E5 1000 mg/kg transdermal) was 38.2% and the “% of Enhanced decorporation over control” value [2] was 255.3%. The “Cumulative excretion of ^241Am In feces” value [2] was 6.1 ± 1.1 % of ID, the “Cumulative excretion of ^241Am In urine” value [2] was 18.3 ±2.5 % of ID and the “Cumulative excretion of ^241Am Total” value [2] was 24.5 ± 3.5 % of ID.
